Laboratory results from patent US11077205B2, “Synthetic compound for improving efficiency of transfection” (Klinikum der Universität München, priority 2016, dated 2021).
Where no end group is shown, it is not given here. The star is where a group is joined. ξ: configuration not given here. Lipoyl(6ξ) = O=C(CCCCC1CCSS1)*

Tests used:
[1] = system: 16HBE cells; assay: In vitro transfection, Metridia luciferase assay in 16HBE cells; assay type: cell-based, human; settings: for pDNA transfection efficiency of P704 ternary complex (in words): MetLuc pDNA, FIG. 14b
Procedure: (§1) Preparation of IVT-mRNA/pDNA containing binary and ternary complexes: Stock solutions of P704 (5 mg/ml) and synthetic compound (1 mg/ml) were prepared in nuclease-free water (NF water) and stored at 4° C. P704 based binary complexes (P704/IVT-mRNA or P704/pDNA) were prepared by mixing equal volumes of diluted P704 stock solution with IVT-mRNA or pDNA solution at the desired concentration in 2× Tyrode's solution. Ternary complexes were generated via two-steps incubation. Briefly, P704 solutions at certain concentration (defined as weight/weight (w/w) ratio between P704 and nucleic acids) in NF-water were mixed with equal volume of synthetic compound solution at specific concentration (defined as N/P ratio, namely the […] between nitrogen residues in synthetic compound and nucleic acids phosphate groups). After 20 min incubation at room temperature (RT), same volumes of nucleic acid (IVT-mRNA or pDNA) solution in NF-water were added to the above P704/synthetic compound solution and mixed gently by pipetting up and down several times. Subsequently, complexes were incubated for another 20 min at RT prior to further use. IVT-mRNA or pDNA solutions in NF-water were complexed with brPEI (25 kDa) at an optimum N/P ratio, the resulting complexes were served as a control polyplex. As for control lipoplex, Lipofectamine® 2000 complexes were prepared according to the manufacturer's instructions using optimum concentration. In order to prepare DOTAP/DOPE liposomes, a lipid film was formed by removing the chloroform solvent in DOTAP/DOPE mixture solution under nitrogen atmosphere. The lipid film is hydrated with NF-water to make the final concentration 10 mM DOTAP/DOPE. The DOTAP/DOPE liposome formulation was formed by mixing 250 μl of pDNA encoding for firefly luciferase and cystic fibrosis transmembrane conductance regulator (fLUC-CFTR pDNA) (150 μg) containing solution and 250 μl diluted DOTAP/DOPE solution (190 μl of 10 mM DOTAP/DOPE liposome and 60 μl NF-water). The mix solution was incubated at RT for 20 min prior to further use.
In vitro transfection: For the luciferase assay, cells were seeded at a density of 1.8×10^4/well (BEAS-2B) or 3.5×10^4/well (16HBE) in 96-well plates 24 h before transfection to reach 60-80% confluence. Following removal of growth medium, cells were rinsed with DPBS (Gibco, Germany). 170 μl of fresh serum-free OptiMEM (Gibco, Germany) were added per well, and subsequently 30 μl of IVT-mRNA or pDNA containing complexes prepared, as described above, corresponding to 400 ng IVT-mRNA or pDNA per well, were added in replicates of five. After 4 h of incubation at 37° C. in a humidified 5% CO2-containing atmosphere, the transfection medium was replaced with culture medium supplemented with 10% FBS and 1% (v/v) penicillin/streptomycin. Luciferase activity in 50 μl supernatants from transfected cells was assayed with Metridia luciferase substrate (coelenterazine, Invivogen, France) after 24 h using a FLUOstar microplate reader (BMG Labtech, Germany) and its activity is expressed in relative light units (RLU). In all cases each sample was measured on at least two other occasions to ensure the reproducibility of the data. […]
(§2) The concentration of P704 in ternary complexes for treatment of BEAS-2B cells was 50 (w/w) and the concentration of P704 in ternary complexes for treatment of 16HBE cells was 63 (w/w). The N/P ratios of the compounds in ternary complexes were as follows:
16HBE cells: Compound 0 (DL) at 20, compounds 1 and 11 at 15, compounds 2 and 3 at 10, compounds 4, 6, 8, and 9 at 5, compounds 5, 7, and 10 at 2.5.
The same transfection procedure as described above was applied.
The concentration of P704 in ternary complexes was 63 (w/w). The N/P ratio of the compounds in certain ternary complexes was as follows:
16HBE cells: Compound 1, 8, and 11 at 20; compound 0 (DL) and 3 at 10; compound 2 at 7.5; compounds 4, 6, 9, and 10 at 5, compounds 5 and 7 at 2.5. […]

[2] = normalized: most hydrophobic residue 100, glycine 0, cited from earlier work; for hydrophobicity index At pH 2: from Sereda et al. 1994; for hydrophobicity index At pH 7: from Monera et al. 1995
[3] = system: BEAS-2B cells; assay: In vitro transfection, Metridia luciferase assay in BEAS-2B cells; assay type: cell-based, human; settings: for pDNA transfection efficiency of P704 ternary complex (in words): MetLuc pDNA, P704 50 (w/w), FIG. 14a
Procedure: as §1
In vitro transfection: For the luciferase assay, cells were seeded at a density of 1.8×10^4/well (BEAS-2B) or 3.5×10^4/well (16HBE) in 96-well plates 24 h before transfection to reach 60-80% confluence. Following removal of growth medium, cells were rinsed with DPBS (Gibco, Germany). 170 μl of fresh serum-free OptiMEM (Gibco, Germany) were added per well, and subsequently 30 μl of IVT-mRNA or pDNA containing complexes prepared, as described above, corresponding to 400 ng IVT-mRNA or pDNA per well, were added in replicates of five. After 4 h of incubation at 37° C. in a humidified 5% CO2-containing atmosphere, the transfection medium was replaced with culture medium supplemented with 10% FBS and 1% (v/v) penicillin/streptomycin. Luciferase activity in 50 μl supernatants from transfected cells was assayed with Metridia luciferase substrate (coelenterazine, Invivogen, France) after 24 h using a FLUOstar microplate reader (BMG Labtech, Germany) and its activity is expressed in relative light units (RLU). In all cases each sample was measured on at least two other occasions to ensure the reproducibility of the data.
The same transfection procedure as described above was applied. Luciferase activity was expressed in RLU. The data are given as the mean±standard deviation (SD) of the mean (n>5) in FIGS. 12a to 12k.
as §2
BEAS-2B cells: Compound 0 (DL) at 30, compound 1 at 20, compounds 3 and 11 at 15, compounds 4 and 6 at 10, compounds 2 and 9 at 5, compounds 5, 7, 8 and 10 at 2.5.
The same transfection procedure as described above was applied. Luciferase activity was expressed in RLU. […]

[4] = system: 16HBE cells; assay: In vitro transfection, Metridia luciferase assay in 16HBE cells; assay type: cell-based, human
[5] = system: BEAS-2B cells; assay: In vitro transfection, Metridia luciferase assay in BEAS-2B cells; assay type: cell-based, human; settings: for pDNA expression compared with compound 0 containing ternary complexes: day 3
[6] = system: airway epithelium cells; assay: In vitro transfection study on cultured airway epithelium cells (luciferase, RLU/mg cellular protein); assay type: cell-based; settings: ternary complexes formed by P704, a nucleic acid and the compound
Procedure: In vitro transfection: For the luciferase assay, cells were seeded at a density of 1.8×10^4/well (BEAS-2B) or 3.5×10^4/well (16HBE) in 96-well plates 24 h before transfection to reach 60-80% confluence. Following removal of growth medium, cells were rinsed with DPBS (Gibco, Germany). 170 μl of fresh serum-free OptiMEM (Gibco, Germany) were added per well, and subsequently 30 μl of IVT-mRNA or pDNA containing complexes prepared, as described above, corresponding to 400 ng IVT-mRNA or pDNA per well, were added in replicates of five. After 4 h of incubation at 37° C. in a humidified 5% CO2-containing atmosphere, the transfection medium was replaced with culture medium supplemented with 10% FBS and 1% (v/v) penicillin/streptomycin. […] assayed with Metridia luciferase substrate (coelenterazine, Invivogen, France) after 24 h using a FLUOstar microplate reader (BMG Labtech, […]). In all cases each sample was measured on at least two other occasions to ensure the reproducibility of the data.

[7] = MetLuc mRNA, optimum composition
[8] = MetLuc pDNA, P704 ternary complex, day 3, optimum composition

Compound	hydrophobicity index At pH 2 [2]	hydrophobicity index At pH 7 [2]	further results
DL-lipoic acid-WKKRRRRRRRRRKK-GACSERSMNFCG ({Lipoyl(6ξ)}-WKKRRRRRRRRRKKGACSERSMNFCG; cysteine pairing not given here) [compound 6]	–	–	pDNA transfection efficiency of P704 ternary complex (in words) ([1]; P704 63 (w/w), optimum N/P): overwhelming signals
NC(=O)C[C@H](N)C(=O)O [Asparagine (asn), Asparagine]	−41	−28	–
N[C@@H](CS)C(=O)O [Cysteine (cys), Cysteine]	52	49	–
C[C@H](N)C(=O)O [Alanine (ala), Alanine]	47	41	–
O=C(O)CCCCC1CCSS1 (racemic) [compound 2, DL-lipoic acid, reference compound]	–	–	IVT-mRNA transfection efficiency of P704 ternary complex (in words) ([3]; MetLuc mRNA, P704 63 (w/w), optimum N/P, FIG. 17a): rather low transfection efficiency; pDNA transfection efficiency of P704 ternary complex (in words) ([3]; optimum N/P): rather low transfection efficiency; IVT-mRNA transfection efficiency of P704 ternary complex (in words) ([1]; MetLuc mRNA, P704 63 (w/w), optimum N/P, FIG. 17b): rather low transfection efficiency; pDNA transfection efficiency of P704 ternary complex (in words) ([1]; P704 63 (w/w), optimum N/P): rather low transfection efficiency
DL-lipoic acid-WLHHHKKLLHHHKKL-GACSERSMNFCG ({Lipoyl(6ξ)}-WLHHHKKLLHHHKKLGACSERSMNFCG; cysteine pairing not given here) [compound 8]	–	–	luciferase expression of ternary complexes with P304 and MetLuc mRNA ([4]; P304 2000 (w/w), high N/P ratio, even higher than compound 9, FIG. 25a): rather high luciferase expression
DL-lipoic acid-WKKRRRRRRRRKK-GACYGLPHKFCG ({Lipoyl(6ξ)}-WKKRRRRRRRRKKGACYGLPHKFCG; cysteine pairing not given here) [compound 7]	–	–	pDNA transfection efficiency of P704 ternary complex (in words) ([3]; optimum N/P): similar; pDNA expression compared with compound 0 containing ternary complexes [5]: slightly better
N[C@@H](Cc1c[nH]c2ccccc12)C(=O)O [Tryptophan (trp), Tryptophan]	84	97	–
N[C@@H](Cc1ccccc1)C(=O)O [Phenylalanine (phe), Phenylalanine]	92	100	–
NH2-VKRKKKPKKRRRRKK-CONH2 (H-VKRKKKPKKRRRRKK-NH2) [compound 1]	–	–	IVT-mRNA transfection efficiency relative to P704/compound 0/IVT-mRNA complex [3, 7]: one third; IVT-mRNA transfection efficiency relative to P704/compound 0/IVT-mRNA complex [1, 7]: one third; pDNA transfection, share of maximum signal intensity of compound 0 counterpart [5, 8]: 7%; pDNA transfection, share of maximum signal intensity of compound 0 counterpart [4, 8]: half
CSCC[C@H](N)C(=O)O [Methionine (met), Methionine]	74	74	–
DL-lipoic acid-WKKKKRRRRRKKKK-GACYGLPHKFCG ({Lipoyl(6ξ)}-WKKKKRRRRRKKKKGACYGLPHKFCG; cysteine pairing not given here) [compound 5]	–	–	pDNA transfection efficiency of P704 ternary complex (in words) ([3]; optimum N/P): similar; pDNA expression compared with compound 0 containing ternary complexes [5]: slightly better
N[C@@H](Cc1ccc(O)cc1)C(=O)O [Tyrosine (tyr), Tyrosine]	49	63	–
CC[C@H](C)[C@H](N)C(=O)O [Isoleucine (ile), Isoleucine]	100	99	–
N[C@@H](Cc1c[nH]cn1)C(=O)O [Histidine (his), Histidine]	−42	8	–
DL-lipoic acid-WKKKKRRRRRKKKK-GACSERSMNFCG ({Lipoyl(6ξ)}-WKKKKRRRRRKKKKGACSERSMNFCG; cysteine pairing not given here) [compound 4]	–	–	pDNA transfection efficiency of P704 ternary complex (in words) ([3]; optimum N/P): similar
NH2-VKRKKKPKKRRRRKKWK(R-lipoic acid)-CONH2 (H-VKRKKKPKKRRRRKKWK(R‑lipoic acid)-NH2) [compound 0 (R)]	–	–	transfection efficiencies of ternary complexes with compound 0 (DL) versus compound 0 (R) [6]: similar
CC(C)[C@H](N)C(=O)O [Valine (val), Valine]	79	76	–
NCCCC[C@H](N)C(=O)O [Lysine (lys), Lysine]	−37	−23	–
